Test results: the NIST ThermoML archive (doi:10.1021/je9006597)

Legend:
[1] = 101 kPa, Liquid; for speed of sound: Pulse-echo method
[2] = xn = mol fraction of the nth substance listed; conditions: 101 kPa, Liquid; for speed of sound: Pulse-echo method

CCCCCCC [heptane]
[1]
Conditions | mass density [kg/m3] | speed of sound [m/s] | viscosity [mPa·s]
303.15 K | 674.5 | 1116 | 0.375
308.15 K | 670.3 | 1092 | 0.35
313.15 K | 667.2 | 1072 | 0.325

CCCCCC [hexane]
[1]
Conditions | mass density [kg/m3] | speed of sound [m/s] | viscosity [mPa·s]
303.15 K | 649.8 | 1048 | 0.283
308.15 K | 645.9 | 1028 | 0.269
313.15 K | 642.2 | 1008 | 0.252

C1CCCCC1 [cyclohexane]
[1]
Conditions | mass density [kg/m3] | speed of sound [m/s] | viscosity [mPa·s]
303.15 K | 768.3 | 1228 | 0.823
308.15 K | 764.4 | 1208 | 0.772
313.15 K | 760.5 | 1188 | 0.685

CCCCCCCC [octane]
[1]
Conditions | mass density [kg/m3] | speed of sound [m/s] | viscosity [mPa·s]
303.15 K | 693.9 | 1148 | 0.491
308.15 K | 690.4 | 1132 | 0.45
313.15 K | 687 | 1112 | 0.415

COC(=O)c1ccccc1 [methyl benzoate]
[1]
Conditions | mass density [kg/m3] | speed of sound [m/s] | viscosity [mPa·s]
303.15 K | 1078.3 | 1380 | 1.667
308.15 K | 1074.4 | 1364 | 1.514
313.15 K | 1070.3 | 1348 | 1.376

COC(=O)c1ccccc1 [methyl benzoate] + CCCCCCCC
[2]
Conditions | mass density, 303.15 K [kg/m3] | mass density, 308.15 K [kg/m3] | mass density, 313.15 K [kg/m3] | speed of sound, 303.15 K [m/s] | speed of sound, 308.15 K [m/s] | speed of sound, 313.15 K [m/s] | viscosity, 303.15 K [mPa·s] | viscosity, 308.15 K [mPa·s] | viscosity, 313.15 K [mPa·s]
x1 = 0.129 | 732.2 | 728.8 | 725.3 | 1160 | 1140 | 1124 | 0.522 | 0.484 | 0.447
x1 = 0.2456 | 770 | 766.4 | 762.9 | 1180 | 1160 | 1144 | 0.576 | 0.529 | 0.492
x1 = 0.3586 | 809.2 | 805.5 | 801.8 | 1200 | 1180 | 1164 | 0.644 | 0.596 | 0.556
x1 = 0.4655 | 848.4 | 844.5 | 840.7 | 1220 | 1200 | 1184 | 0.727 | 0.668 | 0.621
x1 = 0.5672 | 887.5 | 883.6 | 879.7 | 1240 | 1224 | 1204 | 0.832 | 0.762 | 0.705
x1 = 0.662 | 925.8 | 921.9 | 918 | 1260 | 1248 | 1228 | 0.936 | 0.857 | 0.788
x1 = 0.7528 | 964.3 | 960.3 | 956.5 | 1284 | 1272 | 1252 | 1.084 | 0.99 | 0.913
x1 = 0.8382 | 1002.3 | 998.1 | 994.3 | 1308 | 1300 | 1280 | 1.245 | 1.125 | 1.033
x1 = 0.9213 | 1040.6 | 1036.4 | 1032.4 | 1340 | 1328 | 1308 | 1.434 | 1.303 | 1.193
x1 = 1 | 1078.3 | 1074.4 | 1070.3 | 1380 | 1364 | 1348 | 1.667 | 1.514 | 1.376
